# In US20090170846A1, “INHIBITORS OF THE HIV INTEGRASE ENZYME” (Pfizer Inc, priority 2005, published 2009):
# Like-named read-outs stand apart in the source and are kept apart here.
# Tests used:
# [1] = target: T1, Full-length wild type HIV-1 integrase (SF1) (Human immunodeficiency virus type 1 group M subtype B, UniProt P04585); assay: Integrase strand-transfer scintillation proximity assay; assay type: biochemical; settings: integrase strand-transfer SPA; read-out: IC50
# T1 construct: made in house; host or cells: E. coli BL21 (DE3)
# From the text: Integrase Strand-Transfer Scintillation Proximity Assay
# Oligonucleotides: Oligonucleotide #1-5′-(biotin)[…]-3′ (SEQ ID NO: 1) and oligonucleotide #2-5′-[…]-3′ (SEQ ID NO: 2), were synthesized by TriLink BioTechnologies, Inc. (San Diego, Calif.). The annealed product represents preprocessed viral ds-DNA derived from the LTR U5 sequence of the viral genome. A ds-DNA control to test for non-specific interactions was made using a 3′ di-deoxy derivative of oligonucleotide #1 annealed to oligonucleotide #2. The CA overhang at the 5′ end of the non-biotinylated strand of the ds-DNA was created artificially by using a complimentary DNA oligonucleotide shortened by 2 base pairs. This configuration eliminates the requisite 3′ processing step of the integrase enzyme prior to the strand-transfer mechanism.
# Host ds-DNA was prepared as an unlabeled and [^3H]-thymidine labeled product from annealed oligonucleotide #3-5-[…]-3′ (SEQ ID NO: 3), and oligonucleotide #4-1-5′-[…]-3′ (SEQ ID NO: 4), both synthesized by TriLink BioTechnologies, Inc. (San Diego, Calif.). The annealed product had overhanging 3′ ends of poly(dA). Host DNA was custom radiolabeled by PerkinElmer Life Sciences Inc. (Boston, Mass.) using an enzymatic method with a 12/1 ratio of [methyl-^3H]dTTP/cold ds-DNA to yield 5′-blunt end ds-DNA with a specific activity of >900 Ci/mmol. The radiolabeled product was purified using a NENSORB cartridge and stored in stabilized aqueous solution (PerkinElmer). The final radiolabeled product had six [^3H]-thymidine nucleotides at both 5′ ends of the host ds-DNA.
# Reagents: Streptavidin-coated polyvinyltoluene (PVT) SPA beads were purchased from Amersham Biosciences (Piscataway, N.J.). Cesium chloride was purchased from Shelton Scientific, Inc. (Shelton, Conn.). White, polystyrene, flat-bottom, non-binding surface, 96-well plates were purchased from Corning. All other buffer components were purchased from Sigma (St. Louis, Mo.) unless otherwise indicated.
# Enzyme Construction Full-length wild type HIV-1 integrase (SF1) sequence (amino acids 1-289) was constructed in a pET24a vector (Novagen, Madison, Wis.). The construct was confirmed through DNA sequencing.
# Enzyme Purification Full length wild-type HIV Integrase was expressed in E. coli BL21 (DE3) cells and induced with 1 mM isopropyl-1 thio-β-D-galactopyranoside (IPTG) when cells reached an optical density between 0.8-1.0 at 600 nm. Cells were lysed by microfluidation in 50 mM HEPES pH 7.0, 75 mM NaCl, 5 mM DTT, 1 mM 4-(2-Aminoethyl)benzenesulfonylfluoride HCl (AEBSF). Lysate was then centrifuged 20 minutes at 11 k rpm in GSA rotor in Sorvall RC-5B at 4° C. Supernant was discarded and pellet resuspended in 50 mM HEPES pH 7.0, 750 mM NaCl, 5 mM DTT, 1 mM AEBSF and homogenized in a 40 mL Dounce homogenizer for 20 minutes on ice. Homogenate was then centrifuged 20 minutes at 11 k rpm in SS34 rotor in Sorvall RC-5B at 4° C. Supernant was discarded and pellet resuspended in 50 mM HEPES pH 7.0, 750 mM NaCl, 25 mM CHAPS, 5 mM DTT, 1 mM AEBSF. Preparation was then centrifuged 20 minutes at 11 k rpm in SS34 rotor in Sorvall RC-5B at 4° C.
# Supernant was then diluted 1:1 with 50 mM HEPES pH 7.0, 25 mM CHAPS, 1 mM DTT, 1 mM AEBSF and loaded onto a Q-Sepharose column pre-equilibrated with 50 mM HEPES, pH 7.0, 375 mM NaCl, 25 mM CHAPS, 1 mM DTT, 1 mM AEBSF. The flow through peak was collected and NaCl diluted to 0.1 M with 50 mM HEPES pH 7.0, 25 mM CHAPS, 1 mM DTT, 0.5 mM AEBSF and loaded onto a SP-Sepharose column pre-equilibrated with 50 mM HEPES pH 7.0, 100 mM NaCl, 25 mM CHAPS, 1 mM DTT, 0.5 mM AEBSF. After washing the column with the equilibration buffer, a 100 to 400 mM NaCl gradient was run. The eluted integrase was concentrated and run on a S-300 gel diffusion column using 50 mM HEPES pH 7.0, 500 mM NaCl, 25 mM CHAPS, 1 mM DTT, 0.5 mM AEBSF. The peak from this column was concentrated to 0.76 mg/mL and stored at −70° C. and later used for strand transfer assays. […]
# [2] = test system: RF strain of HIV-1 in CEM-SS cells; assay: HIV-1 cell protection assay (XTT dye reduction); assay type: cell-based
# Procedure: HIV-1 Cell Protection Assay
# The antiviral activities of potential modulator compounds (test compounds) were determined in HIV-1 cell protection assays using the RF strain of HIV-1, CEM-SS cells, and the XTT dye reduction method (Weislow, O, S. et al., J. Natl. Cancer Inst 81: 577-586 (1989)). Subject cells were infected with HIV-1 RF virus at an moi of to affect about a 90% kill (for example, an moi in the range of from about 0.025 to about 0.819) or mock infected with medium only and added at 2×10^4 cells per well, with the addition of approximately 200 μL of medium, into 96 well plates containing half-log dilutions of test compounds. Six days later, 50 μl of XTT solution (1 mg/ml XTT tetrazolium and 20 nM phenazine methosulfate) were added to the wells and the plates were reincubated for four hours. Viability, as determined by the amount of XTT formazan produced, was quantified spectrophotometrically by absorbance at 450 nm.
# Data from CPE assays were expressed as the percent of formazan produced in compound-treated cells compared to formazan produced in wells of uninfected, compound-free cells. The fifty percent effective concentration (EC50) was calculated as the concentration of compound that affected an increase in the percentage of formazan production in infected, compound-treated cells to 50% of that produced by uninfected, compound-free cells. The 50% cytotoxicity concentration (CC50) was calculated as the concentration of compound that decreased the percentage of formazan produced in uninfected, compound-treated cells to 50% of that produced in uninfected, compound-free cells. The therapeutic index was calculated by dividing the cytotoxicity (CC50) by the antiviral activity (EC50).
# [3] = Human immunodeficiency virus 1, 144 h, HIV-1 RF, CEM-SS cells, XTT, six days, read-out: EC50
# [4] = Human immunodeficiency virus 1, CEM-SS, 144 h
Compound,IC50 [1],"EC50 [2, 3]","EC50 [2, 4]"
"CN(O)C(=O)c1cc2c(NS(=O)(=O)c3ccccc3)cn(Cc3ccc(F)cc3)c2cn1 [Example 4, 1-(4-fluorobenzyl)-N-hydroxy-N-methyl-3-[(phenylsulfonyl)amino]-1H-pyrrolo[2,3-c]pyridine-5-carboxamide]",360 nM,42 nM,
"CN(O)C(=O)c1cc2c(C(=O)NCCCN3CCCC3=O)cn(Cc3ccc(F)cc3)c2cn1 [Example 16, 1-(4-fluorobenzyl)-N~5~- hydroxy-N~5~-methyl-N~3~-[3-(2-oxopyrrolidin-1-yl)propyl]-1H-pyrrolo[2,3-c]pyridine-3,5-dicarboxamide]",211 nM,,180 nM
"CN(O)C(=O)c1cc2c(C(=O)NCC(F)F)cn(Cc3ccc(F)cc3)c2cn1 [Example 45, N3-(2,2-difluoroethyl)-1-(4-fluorobenzyl)-N5-hydroxy-N5-methyl-1H-pyrrolo[2,3-c]pyridine-3,5-dicarboxamide]",243 nM,,39 nM
"CONC(=O)c1cc2c(C(=O)NCC(F)F)cn(Cc3ccc(F)cc3)c2cn1 [Example 48, N3-(2,2-difluoroethyl)-1-(4-fluorobenzyl)-N5-methoxy-1H-pyrrolo[2,3-c]pyridine-3,5-dicarboxamide]",510 nM,,29 nM
"O=C(NO)c1cc2c(S(=O)(=O)NCCN3CCOCC3)cn(Cc3ccc(F)cc3F)c2cn1 [Example 37, 1-(2,4-difluorobenzyl)-N-hydroxy-3-{[(2-morpholin-4-ylethyl)amino]sulfonyl}-1H-pyrrolo[2,3-c]pyridine-5-carboxamide]",161 nM,490 nM,
"O=C(CC(NC(=O)c1cn(Cc2ccc(F)cc2)c2cnc(C(=O)NO)cc12)C1CC1)NC1CC1 (stereo not shown) [Example 24, N~3~-[1-cyclopropyl-3-(cyclopropylamino)-3-oxopropyl]-1-(4-fluorobenzyl)-N~5~- hydroxy-1H-pyrrolo[2,3-c]pyridine-3,5-dicarboxamide]",16 nM,,380 nM
"CN(O)C(=O)c1cc2c(C(=O)NC[C@@H]3CCCO3)cn(Cc3ccc(F)cc3)c2cn1 [Example 43, 1-(4-fluorobenzyl)-N5-hydroxy-N5-methyl-N3-[(2S)-tetrahydrofuran-2-ylmethyl]-1H-pyrrolo[2,3-c]pyridine-3,5-dicarboxamide]",221 nM,,80 nM
"CONC(=O)c1cc2c(C(=O)N3CCC(N(C)C)C3)cn(Cc3ccc(F)cc3)c2cn1 (stereo not shown) [Example 12, 3-{[3-(dimethylamino)pyrrolidin-1-yl]carbonyl)-1-(4-fluorobenzyl)-N-methoxy-1H-pyrrolo[2,3-c]pyridine-5-carboxamide]",801 nM,,140 nM
"O=C(NO)c1cc2c(NS(=O)(=O)c3ccc4c(c3)CNCC4)cn(Cc3ccc(F)cc3)c2cn1 [Example 20, 1-(4-fluorobenzyl)-N-hydroxy-3-[(1,2,3,4-tetrahydroisoquinolin-7-ylsulfonyl)amino]-1H-pyrrolo[2,3-c]pyridine-5-carboxamide]",370 nM,580 nM,
"CN(C)C1CCN(C(=O)c2cn(Cc3ccc(F)cc3)c3cnc(C(=O)NO)cc23)C1 (stereo not shown) [Example 26, 3-{[3-(dimethylamino)pyrrolidin-1-yl]carbonyl}-1-(4-fluorobenzyl)-N-hydroxy-1H-pyrrolo[2,3-c]pyridine-5-carboxamide]",158 nM,,90 nM
"O=C(NO)c1cc2c(C(=O)N3CCC[C@H]3CO)cn(Cc3ccc(F)cc3)c2cn1 [Example 23, 1-(4-fluorobenzyl)-N-hydroxy-3-{[(2S)-2-(hydroxymethyl)pyrrolidin-1-yl]carbonyl}-1H-pyrrolo[2,3-c]pyridine-5-carboxamide]",75 nM,,57 nM
"CONC(=O)c1cc2c(C(=O)NC(CC(=O)NC3CC3)C3CC3)cn(Cc3ccc(F)cc3)c2cn1 (stereo not shown) [Example 15, N~3~-[1-cyclopropyl-3-(cyclopropylamino)-3-oxopropyl]-1-(4-fluorobenzyl)-N~5~- methoxy-1H-pyrrolo[2,3-c]pyridine-3,5-dicarboxamide]",300 nM,,120 nM
"Cc1c(CNC(=O)c2cn(Cc3ccc(F)cc3)c3cnc(C(=O)NO)cc23)cnn1C [Example 28, N~3~-[(1,5-dimethyl-1H-pyrazol-4-yl)methyl]-1-(4-fluorobenzyl)-N~5~- hydroxy-1H-pyrrolo[2,3-c]pyridine-3,5-dicarboxamide]",46 nM,,100 nM
"CN(O)C(=O)c1cc2c(S(=O)(=O)N(C)C)cn(Cc3ccc(F)cc3)c2cn1 [Example 35, 3-[(dimethylamino)sulfonyl]-1-(4-fluorobenzyl)-N-hydroxy-N-methyl-1H-pyrrolo[2,3-c]pyridine-5-carboxamide]",1030 nM,370 nM,
"CONC(=O)c1cc2c(C(=O)N3CCCC(CO)C3)cn(Cc3ccc(F)cc3)c2cn1 (stereo not shown) [Example 13, 1-(4-fluorobenzyi)-3-{[3-(hydroxymethyl)piperidin-1-yl]carbonyl}-N-methoxy-1H-pyrrolo[2,3-c]pyridine-5-carboxamide]",374 nM,,66 nM
"CC(C)NC(=O)c1cn(Cc2ccc(F)cc2)c2cnc(C(=O)N(C)O)cc12 [Example 44, 1-(4-fluorobenzyl)-N5-hydroxy-N3-isopropyl-N5-methyl-1H-pyrrolo[2,3-c]pyridine-3,5-dicarboxamide]",205 nM,,70 nM
"CCN1CCCC1CNC(=O)c1cn(Cc2ccc(F)cc2)c2cnc(C(=O)NOC)cc12 (stereo not shown) [Example 8, N3~-[(1-ethylpyrrolidin-2-yl)methyl]-1-(4-fluorobenzyl)-N~5~- methoxy-1H-pyrrolo[2,3-c]pyridine-3,5-dicarboxamide]",1400 nM,,700 nM
